The target of experiment [1] is T1, Vascular endothelial growth factor receptor 2 (Homo sapiens, UniProt P35968).
Description: Inhibition of human N-terminal His-tagged non-phosphorylated VEGFR2 assessed as dissociation half life after 60 mins by ligand displacement based enzyme-inhibitor dilution assay
The target in experiment [2] is T1, Vascular endothelial growth factor receptor 2. The source holds these as a separate data set.
Description: Inhibition of human N-terminal His-tagged phosphorylated VEGFR2 assessed as dissociation half life after 60 mins by ligand displacement based enzyme-inhibitor dilution assay
For experiment [3] the target is unchanged. This is another data set of the same source.
For experiment [4] the target is unchanged. The source holds these as a separate data set.
The target is the same in experiment [5]. The experiment can be described thus: Inhibition of human N-terminal His-tagged non-phosphorylated VEGFR2 in presence of ATP measured without preincubation by AlphaScreen analysis. On the technique in general: Bead proximity is the source of the signal in Alpha formats.
Experiment [6] shares this target. The experiment can be described thus: Inhibition of human N-terminal His-tagged non-phosphorylated VEGFR2 after 60 mins by activity based 100 fold dilution assay.
Experiment [7] has the same target. The source holds these as a separate data set.
Description: Inhibition of human N-terminal His-tagged non-phosphorylated VEGFR2 assessed as dissociation half life
Experiment [8] has the same target. The source holds these as a separate data set.
Description: Binding affinity to human N-terminal His-tagged non-phosphorylated VEGFR2 assessed as association constant by surface plasmon resonance analysis
For experiment [9] the target is unchanged. The experiment can be described thus: Inhibition of human N-terminal His-tagged non-phosphorylated VEGFR2 preincubated for 120 mins in presence of ATP by AlphaScreen analysis.
Experiment [10] shares this target. The experiment can be described thus: Inhibition of human N-terminal His-tagged non-phosphorylated VEGFR2 after 60 mins by ligand displacement based enzyme-inhibitor dilution assay.
The target is the same in experiment [11]. The experiment can be described thus: Inhibition of human N-terminal His-tagged non-phosphorylated VEGFR2 after 10 mins by Global fit analysis.
The target is the same in experiment [12]. Briefly: Binding affinity to human N-terminal His-tagged non-phosphorylated VEGFR2 by surface plasmon resonance analysis. In general terms: Surface plasmon resonance follows binding to a sensor surface in real time, without labels.
Experiment [13] shares this target. Briefly: Binding affinity to human N-terminal His-tagged non-phosphorylated VEGFR2 assessed as dissociation rate constant by surface plasmon resonance analysis.
Experiment [14] has the same target. The experiment can be described thus: Inhibition of human N-terminal His-tagged phosphorylated VEGFR2 in presence of ATP measured without preincubation by AlphaScreen analysis.
The target is the same in experiment [15]. The experiment can be described thus: Inhibition of human N-terminal His-tagged phosphorylated VEGFR2 preincubated for 120 mins in presence of ATP by AlphaScreen analysis.

T1 sequence (P35968 whole entry): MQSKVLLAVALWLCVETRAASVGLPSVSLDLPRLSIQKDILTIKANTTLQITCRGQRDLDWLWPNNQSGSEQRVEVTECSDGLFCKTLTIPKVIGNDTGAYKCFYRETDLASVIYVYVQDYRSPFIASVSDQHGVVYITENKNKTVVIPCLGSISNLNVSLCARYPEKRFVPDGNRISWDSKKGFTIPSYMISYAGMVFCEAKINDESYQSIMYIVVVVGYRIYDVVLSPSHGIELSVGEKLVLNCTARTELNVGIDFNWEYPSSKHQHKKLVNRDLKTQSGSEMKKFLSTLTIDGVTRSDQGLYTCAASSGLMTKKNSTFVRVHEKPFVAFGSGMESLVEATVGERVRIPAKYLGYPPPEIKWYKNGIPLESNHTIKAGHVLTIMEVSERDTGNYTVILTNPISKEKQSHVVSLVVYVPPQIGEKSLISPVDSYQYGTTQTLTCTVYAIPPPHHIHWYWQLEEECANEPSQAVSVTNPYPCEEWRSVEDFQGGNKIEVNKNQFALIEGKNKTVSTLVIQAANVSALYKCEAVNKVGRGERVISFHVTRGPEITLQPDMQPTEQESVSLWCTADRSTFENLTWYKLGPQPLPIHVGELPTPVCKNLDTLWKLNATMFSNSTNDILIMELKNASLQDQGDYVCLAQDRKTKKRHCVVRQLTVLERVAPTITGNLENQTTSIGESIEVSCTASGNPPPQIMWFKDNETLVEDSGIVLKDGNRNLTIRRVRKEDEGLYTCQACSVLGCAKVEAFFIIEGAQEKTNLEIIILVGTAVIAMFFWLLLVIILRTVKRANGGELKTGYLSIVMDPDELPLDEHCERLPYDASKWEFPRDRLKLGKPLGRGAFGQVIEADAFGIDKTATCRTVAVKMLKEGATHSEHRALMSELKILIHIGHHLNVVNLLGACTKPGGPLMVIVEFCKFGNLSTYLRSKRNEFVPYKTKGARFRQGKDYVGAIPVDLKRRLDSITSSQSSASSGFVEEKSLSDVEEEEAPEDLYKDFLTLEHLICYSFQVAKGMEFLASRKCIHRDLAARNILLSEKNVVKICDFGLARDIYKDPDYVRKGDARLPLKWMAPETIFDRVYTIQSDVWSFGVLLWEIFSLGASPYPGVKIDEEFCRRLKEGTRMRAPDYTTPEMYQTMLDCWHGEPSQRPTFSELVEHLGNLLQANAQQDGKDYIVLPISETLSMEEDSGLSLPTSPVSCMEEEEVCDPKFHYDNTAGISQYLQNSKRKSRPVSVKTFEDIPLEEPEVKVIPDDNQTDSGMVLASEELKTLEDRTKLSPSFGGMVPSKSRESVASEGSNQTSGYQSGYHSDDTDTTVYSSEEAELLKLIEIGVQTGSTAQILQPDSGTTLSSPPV

As for `CN[C@@H]1C[C@H]2O[C@@](C)([C@@H]1OC)n1c3ccccc3c3c4c(c5c6ccccc6n2c5c31)C(=O)NC4`, the T1/2 in experiment [1], in experiment [2], in experiment [3] and in [4] was less than 5 min each time.

On to `Cn1ccc2ncnc(Oc3ccc(NC(=O)Nc4cccc(C(F)(F)F)c4)c(F)c3)c21`, for which the T1/2 is 130 min in experiment [1]; less than 5 min in experiment [2]; less than 5 min in experiment [3]; 260 min in experiment [4]; 1.3 min in experiment [7]. Besides, the half-inhibitory concentration (IC50) (in general, the concentration at which inhibition is half-maximal) was found to be 4.7 nM in experiment [5], 0.033 nM in experiment [9], 46 nM in [14] and 14 nM in experiment [15]. Besides, the inhibition constant Ki (usually the dissociation constant of the complex between target and ligand, obtained from inhibition or displacement) in experiment [6] turned out to be 0.024 nM; in experiment [10] it was 0.044 nM; in experiment [11], 4.6 nM; in [14] it was 23 nM. This molecule also showed a Ka in experiment [8] of 1.6 ×10⁵ /M/s. In [12], the affinity, expressed as Kd, was 19 nM. Further, the koff – broadly, a measure of how fast the partners let go of each other – in experiment [13] was determined as 0.0031 s⁻¹.

These data come from ChEMBL document CHEMBL1817643, “Biochemical characterization of a novel type-II VEGFR2 kinase inhibitor: comparison of binding to non-phosphorylated and phosphorylated VEGFR2” (Bioorg Med Chem, 2011).
